Laboratory results published in patent US20260265230A1, “FLUORESCENT AND SELF-ASSEMBLING UREIDOPYRIMIDINONE CONJUGATES AND PREPARATION THEREOF” (COUNCIL OF SCIENTIFIC AND INDUSTRIAL RESEARCH AN INDIAN …, priority 2022, published 2026).

Test: Fluorescent studies (absorption and emission spectra) in DMSO
Assay type: physicochemical
Settings: concentration 1×10^−5 M; for maximum absorption wavelength (λabs) / maximum emission wavelength (λems): FIG. 1
Source text: FIG. 1 represents absorption and emission spectra of (a) coumarin-UpyFlAA (6) and (b) hydroquinone-UPy-FlAA(10), in accordance with an implementation of the present disclosure.

| Compound | fluorescence (relative fluorescence intensity) | maximum absorption wavelength (λabs) | maximum emission wavelength (λems) |
| --- | --- | --- | --- |
| CCN(CC)c1ccc2cc(-c3cc(=O)[nH]c(NC(=O)NCCCC[C@H](NC(=O)OC(C)(C)C)C(=O)O)n3)c(=O)oc2c1 [Compound 6, N2-(tert-butoxycarbonyl)-N6-((4-(7-(diethylamino)-2-oxo-2H-chromen-3-yl)-6-oxo-1,6-dihydropyrimidin-2-yl)carbamoyl)lysine] | high level of fluorescence | 437 nm | 487 nm |
| COc1ccc(OC)c(-c2cc(=O)nc(NC(=O)NCCCC[C@H](NC(=O)OC(C)(C)C)C(=O)O)[nH]2)c1 [Compound 10, N2-(tert-butoxycarbonyl)-N6-((6-(2,5-dimethoxyphenyl)-4-oxo-1,4-dihydropyrimidin-2-yl)carbamoyl)lysine] | high level of fluorescence | 310 nm | 421 nm |
